Common to all, as to assay type: cell-based
The subject of assay [1] is MMTV promoter. Description: MMTV agonist assay in A549 MMTV cells. The note with it: Homo sapiens, A549, 6 h, >85% = full agonist, >20% and <85% = partial or efficacy selective agonist, read-out: average maximum asymptote in the MMTV agonist assay. The text has this: Human lung carcinoma A549 cell line (ECACC No. 86012804) has been stably transfected in house with a plasmid containing a renilla luciferase reporter with an MMTV promoter. Stimulation of the cell line with GR agonists results in intracellular signal transduction and ultimately translocation of GR into the nucleus. This activates the inserted DNA sequence resulting in transcription of the integrated luciferase gene, which is quantified using a light emission. The stably transfected cell line was grown as a monolayer in DMEM supplemented with FCS-HI (10%), Non-essential amino acids (1%), L-Glutamine (2 mM), Pen/Strep (1%) and Geneticin (50 mg/ml).
A 90% confluent T175 flask of A549 MMTV cells was harvested by centrifugation for 5 min at 200 g, resuspended in assay buffer (DMEM supplemented with 10% FCS 2×HI, 2 mM Glutamax, Non essential amino acids and 25 mM HEPES) and diluted to 0.1×10^6/ml. 70 μl of cell solution was dispensed to each well of white Nunc 384-well plates, containing compound at the required concentration. Plates were incubated for 6 h at 37° C., 95% humidity, 5% CO2. Plates were equilibrated to room temperature for 1 h prior to the addition of 10 μl of Renilla substrate to each well of assay plates. The plates were covered to protect the reagents from light, and then incubated at room temperature for approximately 15 mins before reading them on a Viewlux. Dose response curves were constructed from which pEC50 and maximum asymptote values were estimated.

Assay [2] concerns NFκB. Description: NFκB agonist assay in A549 SPAP cells.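 On average maximum asymptote in the NFkB assay: maximum inhibition of the TNFα-induced NFκB-driven signal.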 As to conditions: Homo sapiens; for Emax: A549, A549 SPAP cells, >85% = full agonist, ≧20% = partial or full agonist, read-out: average maximum asymptote in the NFkB assay; for IC50: A549 SPAP cells, TNFα 3.2 ng/ml, read-out: pIC50 for the NFkB assay (converted). An outline of the steps: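 A549 cells stably carrying an ELAM/NFκB-driven SPAP reporter were pre-incubated 1 h at 37° C with compound, then stimulated with TNFα (3.2 ng/ml final) for 15 h. SPAP activity read colorimetrically with pNPP at 405 nm after ~1 h; pIC50 estimated from dose-response curves.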

For assay [3], the target named is T1, progesterone receptor (Homo sapiens, UniProt P06401).
T1 construct: expressed in transfected cells; host or cells: CV-1 cells transduced with PRb-BacMam and MMTV-BacMam
T1 sequence (P06401 1-933): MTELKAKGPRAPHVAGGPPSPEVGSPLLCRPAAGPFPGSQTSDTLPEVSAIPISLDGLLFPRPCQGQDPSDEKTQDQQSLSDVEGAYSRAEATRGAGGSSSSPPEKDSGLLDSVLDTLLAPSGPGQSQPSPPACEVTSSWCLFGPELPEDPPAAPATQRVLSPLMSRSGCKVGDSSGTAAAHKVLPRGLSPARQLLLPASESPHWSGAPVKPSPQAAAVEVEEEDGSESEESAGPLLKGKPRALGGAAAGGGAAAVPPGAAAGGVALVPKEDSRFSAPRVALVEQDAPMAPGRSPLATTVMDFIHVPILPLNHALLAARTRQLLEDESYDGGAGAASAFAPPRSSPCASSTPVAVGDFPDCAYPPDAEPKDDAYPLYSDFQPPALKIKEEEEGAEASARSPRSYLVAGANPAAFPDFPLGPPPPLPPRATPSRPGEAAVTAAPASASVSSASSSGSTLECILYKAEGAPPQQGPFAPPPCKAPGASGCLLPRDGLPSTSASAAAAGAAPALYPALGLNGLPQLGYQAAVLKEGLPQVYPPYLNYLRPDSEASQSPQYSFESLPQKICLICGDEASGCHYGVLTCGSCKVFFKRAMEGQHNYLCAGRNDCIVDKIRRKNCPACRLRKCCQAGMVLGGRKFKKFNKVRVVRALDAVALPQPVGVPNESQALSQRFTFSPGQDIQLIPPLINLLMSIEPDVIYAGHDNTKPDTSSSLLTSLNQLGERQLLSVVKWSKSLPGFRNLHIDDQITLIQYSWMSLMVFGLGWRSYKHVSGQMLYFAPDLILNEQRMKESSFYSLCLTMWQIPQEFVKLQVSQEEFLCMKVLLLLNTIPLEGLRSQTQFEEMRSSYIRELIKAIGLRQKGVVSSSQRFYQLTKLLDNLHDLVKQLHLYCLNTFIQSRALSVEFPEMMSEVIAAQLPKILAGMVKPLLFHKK
Description: Assay for progesterone receptor activity (CV-1 cells, PRb-BacMam/MMTV-BacMam). As to conditions: CV-1 cells transduced with PRb-BacMam and MMTV-BacMam; read-out: pEC50 progesterone receptor activity (converted). An outline of the steps:
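CV-1 cells co-transduced with PRb-BacMam and MMTV-BacMam (10% each), seeded onto compounds in DMEM with 10% serum. After 24 h, luminescence was read with Steadylite. pEC50 values were estimated from dose-response curves.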

Structures are written as SMILES.

On to `CN(CC(O)(CNC(=O)c1cnn(-c2ccc(F)cc2)c1N)C(F)(F)F)C(=O)c1c(Cl)cccc1Cl` (racemic) [Example 1 (racemic), 5-Amino-N-(2-{[[(2,6-dichlorophenyl)carbonyl](methyl)amino]methyl}-3,3,3-trifluoro-2-hydroxypropyl)-1-(4-fluorophenyl)-1H-pyrazole-4-carboxamide], for which the Emax in assay [1] is greater than 85%. Besides, in assay [2], the Emax is greater than 85% and the IC50 was less than 1000 nM. The EC50 in assay [3] was greater than 1000 nM.
For the molecule `CCN(CC(O)(CNC(=O)c1cnn(-c2ccc(F)cc2)c1N)C(F)(F)F)C(=O)c1c(Cl)cccc1Cl` (racemic) [Example 2 (racemic), 5-Amino-N-(2-{[[(2,6-dichlorophenyl)carbonyl](ethyl)amino]methyl}-3,3,3-trifluoro-2-hydroxypropyl)-1-(4-fluorophenyl)-1H-pyrazole-4-carboxamide], the Emax in assay [1] and in assay [2] was greater than 85% in each case. The IC50 in assay [2] is less than 1000 nM. The EC50 in assay [3] was greater than 1000 nM.
As for `Nc1c(C(=O)NCC(O)(CNC(=O)c2c(Cl)cccc2Cl)C(F)(F)F)cnn1-c1ccc(F)cc1` (racemic) [Example 3 (racemic), 5-Amino-N-[2-({[(2,6-dichlorophenyl)carbonyl]amino}methyl)-3,3,3-trifluoro-2-hydroxypropyl]-1-(4-fluorophenyl)-1H-pyrazole-4-carboxamide], the Emax in assay [1] was in the range of 20 to 85%. In assay [2], the Emax was no less than 20% and the IC50 is less than 1000 nM. Moreover, in assay [3], the EC50 was greater than 1000 nM.
The corresponding values for `CCN(CC(O)(CNC(=O)c1cnn(-c2ccc(F)cc2)c1N)C(F)(F)F)C(=O)c1c(F)cccc1Cl` (racemic) [Example 4 (racemic), 5-Amino-N-(2-{[[(2-chloro-6-fluorophenyl)carbonyl](ethyl)amino]methyl}-3,3,3-trifluoro-2-hydroxypropyl)-1-(4-fluorophenyl)-1H-pyrazole-4-carboxamide] are greater than 85%, greater than 85%, less than 1000 nM and greater than 1000 nM.
On to `CCN(CC(O)(CNC(=O)c1cnn(-c2ccc(F)cc2)c1N)C(F)(F)F)C(=O)c1c(F)cccc1F` (racemic) [Example 5 (racemic), 5-Amino-N-(2-{[[(2,6-difluorophenyl)carbonyl](ethyl)amino]methyl}-3,3,3-trifluoro-2-hydroxypropyl)-1-(4-fluorophenyl)-1H-pyrazole-4-carboxamide], for which the Emax in assay [1] and in assay [2] was greater than 85% in each case. Further, in assay [2], the IC50 was less than 1000 nM. Also, the EC50 in assay [3] is greater than 1000 nM.
For `Nc1c(C(=O)NCC(O)(CNC(=O)c2c(F)cccc2Cl)C(F)(F)F)cnn1-c1ccc(F)cc1` (racemic) [Example 7 (racemic), 5-Amino-N-[2-({[(2-chloro-6-fluorophenyl)carbonyl]amino}methyl)-3,3,3-trifluoro-2-hydroxypropyl]-1-(4-fluorophenyl)-1H-pyrazole-4-carboxamide], the Emax in assay [1] is 20 to 85%; in assay [2] it was no less than 20%. Also, the IC50 in assay [2] was less than 1000 nM. The EC50 in assay [3] is greater than 1000 nM.
The corresponding values for `CN(CC(O)(CNC(=O)c1cnn(-c2ccc(F)cc2)c1N)C(F)(F)F)C(=O)c1c(F)cccc1F` (racemic) [Example 8 (racemic), 5-Amino-N-(2-{[[(2,6-difluorophenyl)carbonyl](methyl)amino]methyl}-3,3,3-trifluoro-2-hydroxypropyl)-1-(4-fluorophenyl)-1H-pyrazole-4-carboxamide] are greater than 85%, greater than 85%, less than 1000 nM and greater than 1000 nM.
In the same order, the values of `CN(CC(O)(CNC(=O)c1cnn(-c2ccc(F)cc2)c1N)C(F)(F)F)C(=O)c1c(F)cccc1Cl` (racemic) [Example 9 (racemic), 5-Amino-N-(2-{[[(2-chloro-6-fluorophenyl)carbonyl](methyl)amino]methyl}-3,3,3-trifluoro-2-hydroxypropyl)-1-(4-fluorophenyl)-1H-pyrazole-4-carboxamide] are greater than 85%, greater than 85%, less than 1000 nM and greater than 1000 nM.
Regarding `CCN(CC(O)(CNC(=O)c1cnn(-c2ccc(F)cc2)c1N)C(F)(F)F)C(=O)c1ccccc1S(C)(=O)=O` (racemic) [Example 10 (racemic), 5-Amino-N-{2-[(ethyl{[2-(methylsulfonyl)phenyl]carbonyl}amino)methyl]-3,3,3-trifluoro-2-hydroxypropyl}-1-(4-fluorophenyl)-1H-pyrazole-4-carboxamide], the Emax in assay [1] is greater than 85%. In assay [2], the Emax was greater than 85% and the IC50 is less than 1000 nM. Further, the EC50 in assay [3] was greater than 1000 nM.
Turning to `Nc1c(C(=O)NCC(O)(CNC(=O)c2c(Br)cccc2Br)C(F)(F)F)cnn1-c1ccc(F)cc1` (racemic) [Example 11 (racemic), 5-Amino-N-[2-({[(2,6-dibromophenyl)carbonyl]amino}methyl)-3,3,3-trifluoro-2-hydroxypropyl]-1-(4-fluorophenyl)-1H-pyrazole-4-carboxamide], the figures for the Emax in assay [1] and in assay [2] were 20 to 85% and no less than 20%, respectively. Besides, the IC50 in assay [2] is less than 1000 nM. The EC50 in assay [3] was greater than 1000 nM.
In the same order, the values of `Nc1c(C(=O)NCC(O)(CNC(=O)c2c(Cl)cccc2Br)C(F)(F)F)cnn1-c1ccc(F)cc1` (racemic) [Example 12 (racemic), 5-Amino-N-[2-({[(2-bromo-6-chlorophenyl)carbonyl]amino}methyl)-3,3,3-trifluoro-2-hydroxypropyl]-1-(4-fluorophenyl)-1H-pyrazole-4-carboxamide] are 20 to 85%, no less than 20%, less than 1000 nM and greater than 1000 nM.
The corresponding values for `Nc1c(C(=O)NCC(O)(CNC(=O)c2c(F)cccc2Br)C(F)(F)F)cnn1-c1ccc(F)cc1` (racemic) [Example 13 (racemic), 5-Amino-N-[2-({[(2-bromo-6-fluorophenyl)carbonyl]amino}methyl)-3,3,3-trifluoro-2-hydroxypropyl]-1-(4-fluorophenyl)-1H-pyrazole-4-carboxamide] are 20 to 85%, no less than 20%, less than 1000 nM and greater than 1000 nM.
In the same order, the values of `Nc1c(C(=O)NCC(O)(CNC(=O)c2c(Cl)cccc2OC(F)F)C(F)(F)F)cnn1-c1ccc(F)cc1` (racemic) [Example 14 (racemic), 5-Amino-N-(2-{[({2-chloro-6-[(difluoromethyl)oxy]phenyl}carbonyl)amino]methyl}-3,3,3-trifluoro-2-hydroxypropyl)-1-(4-fluorophenyl)-1H-pyrazole-4-carboxamide] are 20 to 85%, no less than 20%, less than 1000 nM and greater than 1000 nM.

The values above are taken from US8247377B2, “Non-steroidal glucocorticoid inhibitors and their use in treating inflammation, allergy and auto-immune conditions” (Glaxo Group Limited, priority 2006, dated 2012).
